Test [1] has as its target T1, human progesterone receptor A (Homo sapiens, UniProt P06401).
T1 construct: expressed in transfected cells; host or cells: SK-N-MC human neuroblastoma cells, stably transfected with pRChPR-A-neo and pMMTV-LUC
T1 sequence (P06401 1-769 isoform P06401-2): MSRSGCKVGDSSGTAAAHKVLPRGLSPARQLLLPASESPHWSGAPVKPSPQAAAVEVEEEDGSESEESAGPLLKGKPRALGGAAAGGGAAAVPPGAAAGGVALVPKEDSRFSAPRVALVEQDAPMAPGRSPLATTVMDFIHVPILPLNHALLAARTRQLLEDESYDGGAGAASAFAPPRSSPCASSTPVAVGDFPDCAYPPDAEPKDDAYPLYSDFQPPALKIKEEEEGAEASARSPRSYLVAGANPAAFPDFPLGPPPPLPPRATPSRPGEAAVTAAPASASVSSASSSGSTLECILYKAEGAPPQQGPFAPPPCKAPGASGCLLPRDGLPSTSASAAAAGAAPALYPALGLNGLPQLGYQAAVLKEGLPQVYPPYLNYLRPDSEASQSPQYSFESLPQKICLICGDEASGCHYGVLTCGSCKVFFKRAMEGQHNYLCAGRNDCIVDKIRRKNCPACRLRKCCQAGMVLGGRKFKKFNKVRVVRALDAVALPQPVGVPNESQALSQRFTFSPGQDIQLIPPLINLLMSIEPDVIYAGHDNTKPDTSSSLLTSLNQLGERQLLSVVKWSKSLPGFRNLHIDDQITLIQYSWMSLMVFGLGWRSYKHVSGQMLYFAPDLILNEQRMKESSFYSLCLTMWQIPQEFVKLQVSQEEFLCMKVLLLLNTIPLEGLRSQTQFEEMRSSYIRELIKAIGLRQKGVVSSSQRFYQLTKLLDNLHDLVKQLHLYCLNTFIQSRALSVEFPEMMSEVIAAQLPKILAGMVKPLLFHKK
Briefly: Progesterone receptor-antagonistic action in stably transfected SK-N-MC cells, MMTV-LUC reporter (PR-A). The following applies: antagonistic potency vs 0.1 nmol/l promegestone, 24 hours. The format is cell-based. The method, then:
(§1) Progesterone Receptor-Antagonistic Action in Stable Transfectants of Human Neuroblastoma Cells (SK-N-MC Cells) with the Human Progesterone A or Progesterone B Receptor and an MN-LUC Reporter Construct
(§2) SK-N-MC cells (human neuroblastoma cells) which have been stably transfected with plasmids expressing the human progesterone receptor B (pRChPR-B-neo) or the human progesterone receptor A (pRChPR-A-neo) and a reporter construct (pMMTV-LUC) were incubated for 24 hours either in the absence (negative control) or in the presence of ascending amounts of the particular test compound (0.01 nmol/l, 0.1 nmol/l, 1 nmol/l, 10 nmol/l, 100 nmol/l and […]), in order to determine the agonistic efficacy. As a positive control of the reporter gene induction, the cells were treated with the synthetic gestagen promegestone (0.01 nmol/l, 0.1 nmol/l, 1 nmol/l, 10 nmol/l, 100 nmol/l and […]). To determine the antagonistic activity, the cells were treated with 0.1 nmol/l promegestone and additionally with ascending amounts of the particular test compound (0.01 nmol/l, 0.1 nmol/l, 1 nmol/l, 10 nmol/l, 100 nmol/l and […]). The activity of the reporter gene LUC (LUC=luciferase) was determined in the cell lysates and measured as RLU (relative light units). All measurements are reported as % efficacy and as EC50 and IC50 concentrations.

The target in test [2] is T2, human progesterone receptor B (Homo sapiens, UniProt P06401).
T2 construct: expressed in transfected cells; host or cells: SK-N-MC human neuroblastoma cells, stably transfected with pRChPR-B-neo and pMMTV-LUC
T2 sequence (P06401 1-933): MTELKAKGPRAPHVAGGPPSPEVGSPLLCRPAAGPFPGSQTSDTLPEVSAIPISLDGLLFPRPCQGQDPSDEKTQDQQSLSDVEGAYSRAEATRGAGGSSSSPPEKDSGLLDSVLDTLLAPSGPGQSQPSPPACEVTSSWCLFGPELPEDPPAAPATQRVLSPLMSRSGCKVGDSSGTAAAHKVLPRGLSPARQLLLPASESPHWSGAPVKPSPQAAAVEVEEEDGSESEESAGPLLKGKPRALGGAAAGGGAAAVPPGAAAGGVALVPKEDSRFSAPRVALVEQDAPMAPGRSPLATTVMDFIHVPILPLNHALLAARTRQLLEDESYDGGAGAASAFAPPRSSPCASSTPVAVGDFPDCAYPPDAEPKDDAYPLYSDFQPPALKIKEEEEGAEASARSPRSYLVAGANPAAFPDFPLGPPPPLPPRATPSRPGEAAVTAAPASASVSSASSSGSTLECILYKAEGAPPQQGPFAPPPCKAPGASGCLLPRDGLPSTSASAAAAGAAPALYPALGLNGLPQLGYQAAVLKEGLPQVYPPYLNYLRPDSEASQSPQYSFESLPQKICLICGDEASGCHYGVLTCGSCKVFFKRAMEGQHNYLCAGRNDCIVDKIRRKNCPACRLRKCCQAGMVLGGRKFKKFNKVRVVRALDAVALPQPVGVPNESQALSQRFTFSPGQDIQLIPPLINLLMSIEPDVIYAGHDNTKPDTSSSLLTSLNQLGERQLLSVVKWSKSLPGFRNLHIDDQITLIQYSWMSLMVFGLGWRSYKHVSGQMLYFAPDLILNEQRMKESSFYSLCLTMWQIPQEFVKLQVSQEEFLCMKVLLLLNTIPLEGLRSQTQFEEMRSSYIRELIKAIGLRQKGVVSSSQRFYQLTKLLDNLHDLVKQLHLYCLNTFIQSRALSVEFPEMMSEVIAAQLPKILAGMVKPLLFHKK
Briefly: Progesterone receptor-antagonistic action in stably transfected SK-N-MC cells, MMTV-LUC reporter (PR-B). Conditions: antagonistic potency vs 0.1 nmol/l promegestone, 24 hours. The format is cell-based. The method, then:
as §1, §2

Here are results for 7 compounds from patent US9206219B2, “17-hydroxy-17-pentafluorethyl-estra-4,9(10)-dien-11-aryl derivatives, methods for the production thereof and the use thereof for treating diseases” (Bayer Intellectual Property GmbH, priority 2009, dated 2015).

Broadly, the IC50 is the concentration that gives 50% inhibition.

For `CC1(c2ccc([C@H]3C[C@@]4(C)[C@@H](CC[C@@]4(O)C(F)(F)C(F)(F)F)[C@@H]4CCC5=CC(=O)CCC5=C43)cc2)COC1` [Example 40, (8S,11R,13S,14S,17S)-17-hydroxy-13-methyl-11-[4-(3-methyloxetan-3-yl)phenyl]-17-pentafluoroethyl-1,2,6,7,8,11,12,13,14,15,16,17-dodecahydrocyclopenta[a]phenanthren-3-one], the IC50 in test [1] came out at 0.01 nM; in test [2], 0.05 nM.
In the same order, the values of `CC(C)NC(=O)OCc1ccc([C@H]2C[C@@]3(C)[C@@H](CC[C@@]3(O)C(F)(F)C(F)(F)F)[C@@H]3CCC4=CC(=O)CCC4=C32)cc1` [Example 42, isopropylcarbamic acid 4-((8S,11R,13S,14S,17S)-17-hydroxy-13-methyl-3-oxo-17-pentafluoroethyl-2,3,6,7,8,11,12,13,14,15,16,17-dodecahydro-1H-cyclopenta[a]phenanthren-11-yl)benzyl ester] are 0.1 nM and 0.2 nM.
For `C=CCNC(=O)OCc1ccc([C@H]2C[C@@]3(C)[C@@H](CC[C@@]3(O)C(F)(F)C(F)(F)F)[C@@H]3CCC4=CC(=O)CCC4=C32)cc1` [Example 43, allylcarbamic acid 4-((8S,11R,13S,14S,17S)-17-hydroxy-13-methyl-3-oxo-17-pentafluoroethyl-2,3,6,7,8,11,12,13,14,15,16,17-dodecahydro-1H-cyclopenta[a]phenanthren-11-yl)benzyl ester], the IC50 in test [1] and in test [2] was 0.1 nM in each case.
Consider `CC(C)(C)NC(=O)OCc1ccc([C@H]2C[C@@]3(C)[C@@H](CC[C@@]3(O)C(F)(F)C(F)(F)F)[C@@H]3CCC4=CC(=O)CCC4=C32)cc1` [Example 44, tert-butylcarbamic acid 4-((8S,11R,13S,14S,17S)-17-hydroxy-13-methyl-3-oxo-17-pentafluoroethyl-2,3,6,7,8,11,12,13,14,15,16,17-dodecahydro-1H-cyclopenta[a]phenanthren-11-yl)benzyl ester], for which the IC50 in test [1] and in test [2] was 0.1 nM in each case.
`C[C@]12C[C@H](c3ccc(COC(=O)Nc4ccc(N5CCCCC5)cc4)cc3)C3=C4CCC(=O)C=C4CC[C@H]3[C@@H]1CC[C@@]2(O)C(F)(F)C(F)(F)F` [Example 45, (4-piperidin-1-ylphenyl)carbamic acid 4-((8S,11R,13S,14S,17S)-17-hydroxy-13-methyl-3-oxo-17-pentafluoroethyl-2,3,6,7,8,11,12,13,14,15,16,17-dodecahydro-1H-cyclopenta[a]phenanthren-11-yl)benzyl ester]: the IC50 is 0.02 nM in test [1] and 0.09 nM in test [2].
In the same order, the values of `C[C@]12C[C@H](c3ccc(COC(=O)Nc4ccccc4)cc3)C3=C4CCC(=O)C=C4CC[C@H]3[C@@H]1CC[C@@]2(O)C(F)(F)C(F)(F)F` [Example 46, phenylcarbamic acid 4-((8S,11R,13S,14S,17S)-17-hydroxy-13-methyl-3-oxo-17-pentafluoroethyl-2,3,6,7,8,11,12,13,14,15,16,17-dodecahydro-1H-cyclopenta[a]phenanthren-11-yl)benzyl ester] are 0.01 nM and 0.01 nM.
In the same order, the values of `Cc1ccc(NC(=O)OCc2ccc([C@H]3C[C@@]4(C)[C@@H](CC[C@@]4(O)C(F)(F)C(F)(F)F)[C@@H]4CCC5=CC(=O)CCC5=C43)cc2)cc1` [Example 48, (4-methylphenyl)carbamic acid 4-((8S,11R,13S,14S,17S)-17-hydroxy-13-methyl-3-oxo-17-pentafluoroethyl-2,3,6,7,8,11,12,13,14,15,16,17-dodecahydro-1H-cyclopenta[a]phenanthren-11-yl)benzyl ester] are 0.07 nM and 0.2 nM.
